# From patent US20240287136A1, “PHARMACEUTICAL COMPOSITION AND THE USE THEREOF IN THE TREATMENT OF AUTOIMMUNE DISEASES” (Singapore Health Services Pte. Ltd., priority 2016, published 2024)
# What was measured:
# [1] = system: T cells cocultured with mDC; assay: Gene expression of regulatory molecules in T cells co-cultured with mDC+HCQ; type: cell-based, human
# Protocol: (§1) FIG. 6. […] CD4+ sorted cells were co-cultured with the mDC-treated groups for an additional 24 hours. The expression of PD-1 (MFI: 187 vs 212, T(x)=26.4, p<0.01) and intracellular PD-1 (MFI: 46 vs 222, T(x) 161, p<0.01) was increased in T cells when co-cultured with HCQ-treated mDC. h.
# Data are expressed as 2(−dCT)×100 of GAPDH.
# (§2) MFI=Mean Fluorescence Index. […] MFI=Mean Fluorescence Index Sorted CD4+ T cells were then co-cultured with mDCs for an additional 24 hours.
# CD4+ sorted cells = assay: PD-1 / PDL1 expression on CD4+ T cells co-cultured with HCQ-treated mDC; type: cell-based, human
# Protocol: as §1, §2
# Monocyte-derived dendritic cells (DCs) were isolated from healthy controls and activated with lipopolysaccharide (LPS). […] HCQ-treated and untreated mature DCs were then co-cultured with CD4+ T cells to assess the potential of these DCs in activating the T cells.
# [2] = system: patients with early rheumatoid arthritis; assay: Phase II trial of mucosal tolerization to SEQ ID NO. 1: clinical outcome; type: in vivo, human
# Protocol: The model employed here is based on the hypothesis that immune tolerization to a T-cell epitope, such as SEQ ID NO. 1 that may be a contributor of inflammation in patients with rheumatoid arthritis, may lead to detectable clinical improvement. A total of 96 patients with early rheumatoid arthritis, who were not allowed on Methotrexate or biologics, were tested with mucosal tolerization to SEQ ID NO. 1. Patients are defined as “responders” if they meet the response criteria at any time during the study. […] SEQ ID NO. […]
# [3] = system: Monocyte-derived, LPS-induced dendritic cells (mDC); assay: Marker expression on monocyte-derived, LPS-induced dendritic cells treated in vitro with HCQ; type: cell-based, human
# Protocol: FIG. 6. […] CD4+ sorted cells were co-cultured with the mDC-treated groups for an additional 24 hours.
# as §2
smiles,measurement,setting,value
"CCN(CCO)CCCC(C)Nc1ccnc2cc(Cl)ccc12 (stereo not shown) [HCQ, hydroxychloroquine]",Gene expression of CTLA-4 in T cells,[1]; without HCQ 1.74,15.06 2(−dCT)×100 of GAPDH
same,Gene expression of FoxP3 in T cells,[1]; without HCQ 3.06,12.27 2(−dCT)×100 of GAPDH
same,Gene expression of IL-10 in T cells,[1]; without HCQ 3.71,7.57 2(−dCT)×100 of GAPDH
same,Gene expression of TGF β in T cells,[1]; without HCQ 15.00,23.85 2(−dCT)×100 of GAPDH
same,expression of intracellular PD-1 in T cells,"CD4+ sorted cells; CD4+ cells co-cultured 24 hours with HCQ-treated mDC, control 46",222 MFI
same,expression of PD-1 in T cells,"CD4+ sorted cells; CD4+ cells co-cultured 24 hours with HCQ-treated mDC, control 187",212 MFI
same,expression of PDL1 on CD4+ T cells,CD4+ sorted cells; cultured in the presence of HCQ-treated DCs (FIG. 12B),expressed more
same,effect on the therapeutic activity of SEQ ID NO: 1,[2]; HCQ use preceding SEQ ID NO: 1 administration,synergistic effect
same,clinical control,"[2]; post hoc evaluation of Phase II trial, preceding use of HCQ in combination with SEQ ID NO. 1 treatment",favored clinical control
same,expression of HLA-DR on mDC,[3]; control 100,20.8 MFI
same,expression of CD200 on mDC,[3]; control 264,409 MFI
same,expression of IL-10 in mDC,[3]; control 453,1045 MFI
same,expression of CD86 on mDC,[3]; control 37983,34170 MFI
